Data as given in patent publication US20250231178A1, “A BIOMARKER FOR DETERMINING ALZHEIMER'S DISEASE” (UNIVERSITY OF EASTERN FINLAND, priority 2022, published 2025).

Legend:
[1] = molecular target: T1, PIEZO1 receptor in red blood cells (RBCs) (Homo sapiens, UniProt Q92508); test: Yoda1-induced Ca flux in red blood cells, Fluo4 am, flow cytometry (FACS) time-lapse; type: cell-based; conditions: for normalized MFI levels (Fluo4 am median fluorescence intensity normalized on baseline): 10 μM Yoda1, 60 s of recording
T1 construct: indicating the Ca^2+ influx into the red blood cells (RBCs) through PIEZO1 ion channels; endogenous in cells; host or cells: Red blood cells from venous blood of healthy, MCI and AD donors
Procedure: The venous blood samples from healthy subjects, patients with mild cognitive impairment (MCI), and patients with Alzheimer's disease (AD) were collected into BD Vacutainer® blood collection tubes containing the K3-EDTA anti-coagulant. 150 μl of whole blood was taken for further processing, washed two times with 10 ml of phosphate-buffered saline (PBS) (5 mins, 300 g, RT (=about 20-25° C.) to remove plasma. After the second wash, the supernatant was removed and 50 μl of red blood cells (RBCs) were transferred to clean falcon tube and resuspended in 200 μl PBS (250 μl total volume of cell suspension). 250 μl of Fluo4 am AM (Thermo Fisher Scientific) fluorescent dye was added and cells were incubated for 30 minutes at 37° C. in dark.
After the incubation, cell suspension was washed twice with 5 ml of PBS, followed by one wash with HBSS (5 mins, 300 g, RT). Supernatant was carefully removed with pipette and 50 μl pellet was resuspended in 450 μl of Hank's Balanced Salt Solution (HBSS) to form 10% cell suspension. 10 μl of 10% cell suspension was transferred to 390 μl of RPMI/FBS (10:1) (400 μl final volume). This cell suspension was further used for flow cytometry time-lapse assessment using CytoFLEX S flow cytometer (Beckman Coulter, USA).
At the start of the recording, at t=0 seconds, baseline fluorescence was recorded for 20 seconds. At t=20 seconds, Yoda1 in DMSO was applied to the sample at the final concentration of 5 or 10 μM. At t=4 minutes and 20 seconds, ionomycin, serving as the positive control, was applied at the final concentration 10 μM. Recording was finished at t=5 minutes 30 seconds.
FIGS. 3A-3C plot the mean values of Ca^2+ signal for each group with 10 μM Yoda1 spanning from BL (t=0 seconds) to t=4 minutes, while the FIGS. 3D-3F show the measurements of individual samples at t=60 seconds.
All flow cytometric data were analyzed using CytExpert Software v 2.4 (Beckman Coulter Inc., CA, USA). Yoda1-induced Ca flux was measured by using Fluo4 am median fluorescence intensity (MFI) of single cells after Yoda1 application at different time points—baseline (before application of Yoda1 at 10 μM concentrations), and every 20 sec of the recording.
Data were analyzed using GraphPad Prism Software (CA, USA). Statistical analysis was performed using Mann-Whitney test, two-tailed. The data are presented as mean±SEM.

[2] = molecular target: T1, PIEZO1 receptor in red blood cells (RBCs); test: Yoda1-induced Ca flux in red blood cells, Fluo4 am, microtiter plate format and fluorometer; type: cell-based; conditions: n=4, mean±SEM, plate reader
Procedure: Mann-Whitney test, two-tailed, *p<0.05. […] Signals recorded without addition of Fluo4, with and without Yoda1, were subtracted from their Fluo4 loaded counterparts to give the final read-outs used in normalising the results.
300 μL of blood from the healthy persons and AD patients was collected into the blood sampling tubes with sodium citrate to prevent coagulation. The samples were washed twice with PBS buffer (Ca^2+ and Mg^2+ free) by centrifugation at 300 G for 5 minutes. […] of the red blood cell (RBC) pellet was divided into […], 50 μL for fluorescent staining and 50 μL for the negative control. […] The samples were distributed into the microtitration plate (96-wells, 180 μL per well), after which the ground level of fluorescence (485 nm/535 nm, 1.0 s, Victor Wallac) was measured immediately. 20 μL of DMSO (for vehicle control) or 20 μL of 5 μM Yoda1 (for PIEZO1 activity) was added into the wells, and the fluorescence was measured immediately. The fluorescence signal of the sample having no Fluo4 am was subtracted from the fluorescence signals of the vehicle and Yoda1 samples treated with Fluo4 am. The increase in fluorescence upon addition of Yoda1 was normalized to the signal measured before addition of Yoda1. The normalized increase fluorescence was 2.62±0.42 for healthy and 5.64±0.23 for AD (mean #SEM) (FIG. 3G). […]

T1 sequence (Q92508 whole entry): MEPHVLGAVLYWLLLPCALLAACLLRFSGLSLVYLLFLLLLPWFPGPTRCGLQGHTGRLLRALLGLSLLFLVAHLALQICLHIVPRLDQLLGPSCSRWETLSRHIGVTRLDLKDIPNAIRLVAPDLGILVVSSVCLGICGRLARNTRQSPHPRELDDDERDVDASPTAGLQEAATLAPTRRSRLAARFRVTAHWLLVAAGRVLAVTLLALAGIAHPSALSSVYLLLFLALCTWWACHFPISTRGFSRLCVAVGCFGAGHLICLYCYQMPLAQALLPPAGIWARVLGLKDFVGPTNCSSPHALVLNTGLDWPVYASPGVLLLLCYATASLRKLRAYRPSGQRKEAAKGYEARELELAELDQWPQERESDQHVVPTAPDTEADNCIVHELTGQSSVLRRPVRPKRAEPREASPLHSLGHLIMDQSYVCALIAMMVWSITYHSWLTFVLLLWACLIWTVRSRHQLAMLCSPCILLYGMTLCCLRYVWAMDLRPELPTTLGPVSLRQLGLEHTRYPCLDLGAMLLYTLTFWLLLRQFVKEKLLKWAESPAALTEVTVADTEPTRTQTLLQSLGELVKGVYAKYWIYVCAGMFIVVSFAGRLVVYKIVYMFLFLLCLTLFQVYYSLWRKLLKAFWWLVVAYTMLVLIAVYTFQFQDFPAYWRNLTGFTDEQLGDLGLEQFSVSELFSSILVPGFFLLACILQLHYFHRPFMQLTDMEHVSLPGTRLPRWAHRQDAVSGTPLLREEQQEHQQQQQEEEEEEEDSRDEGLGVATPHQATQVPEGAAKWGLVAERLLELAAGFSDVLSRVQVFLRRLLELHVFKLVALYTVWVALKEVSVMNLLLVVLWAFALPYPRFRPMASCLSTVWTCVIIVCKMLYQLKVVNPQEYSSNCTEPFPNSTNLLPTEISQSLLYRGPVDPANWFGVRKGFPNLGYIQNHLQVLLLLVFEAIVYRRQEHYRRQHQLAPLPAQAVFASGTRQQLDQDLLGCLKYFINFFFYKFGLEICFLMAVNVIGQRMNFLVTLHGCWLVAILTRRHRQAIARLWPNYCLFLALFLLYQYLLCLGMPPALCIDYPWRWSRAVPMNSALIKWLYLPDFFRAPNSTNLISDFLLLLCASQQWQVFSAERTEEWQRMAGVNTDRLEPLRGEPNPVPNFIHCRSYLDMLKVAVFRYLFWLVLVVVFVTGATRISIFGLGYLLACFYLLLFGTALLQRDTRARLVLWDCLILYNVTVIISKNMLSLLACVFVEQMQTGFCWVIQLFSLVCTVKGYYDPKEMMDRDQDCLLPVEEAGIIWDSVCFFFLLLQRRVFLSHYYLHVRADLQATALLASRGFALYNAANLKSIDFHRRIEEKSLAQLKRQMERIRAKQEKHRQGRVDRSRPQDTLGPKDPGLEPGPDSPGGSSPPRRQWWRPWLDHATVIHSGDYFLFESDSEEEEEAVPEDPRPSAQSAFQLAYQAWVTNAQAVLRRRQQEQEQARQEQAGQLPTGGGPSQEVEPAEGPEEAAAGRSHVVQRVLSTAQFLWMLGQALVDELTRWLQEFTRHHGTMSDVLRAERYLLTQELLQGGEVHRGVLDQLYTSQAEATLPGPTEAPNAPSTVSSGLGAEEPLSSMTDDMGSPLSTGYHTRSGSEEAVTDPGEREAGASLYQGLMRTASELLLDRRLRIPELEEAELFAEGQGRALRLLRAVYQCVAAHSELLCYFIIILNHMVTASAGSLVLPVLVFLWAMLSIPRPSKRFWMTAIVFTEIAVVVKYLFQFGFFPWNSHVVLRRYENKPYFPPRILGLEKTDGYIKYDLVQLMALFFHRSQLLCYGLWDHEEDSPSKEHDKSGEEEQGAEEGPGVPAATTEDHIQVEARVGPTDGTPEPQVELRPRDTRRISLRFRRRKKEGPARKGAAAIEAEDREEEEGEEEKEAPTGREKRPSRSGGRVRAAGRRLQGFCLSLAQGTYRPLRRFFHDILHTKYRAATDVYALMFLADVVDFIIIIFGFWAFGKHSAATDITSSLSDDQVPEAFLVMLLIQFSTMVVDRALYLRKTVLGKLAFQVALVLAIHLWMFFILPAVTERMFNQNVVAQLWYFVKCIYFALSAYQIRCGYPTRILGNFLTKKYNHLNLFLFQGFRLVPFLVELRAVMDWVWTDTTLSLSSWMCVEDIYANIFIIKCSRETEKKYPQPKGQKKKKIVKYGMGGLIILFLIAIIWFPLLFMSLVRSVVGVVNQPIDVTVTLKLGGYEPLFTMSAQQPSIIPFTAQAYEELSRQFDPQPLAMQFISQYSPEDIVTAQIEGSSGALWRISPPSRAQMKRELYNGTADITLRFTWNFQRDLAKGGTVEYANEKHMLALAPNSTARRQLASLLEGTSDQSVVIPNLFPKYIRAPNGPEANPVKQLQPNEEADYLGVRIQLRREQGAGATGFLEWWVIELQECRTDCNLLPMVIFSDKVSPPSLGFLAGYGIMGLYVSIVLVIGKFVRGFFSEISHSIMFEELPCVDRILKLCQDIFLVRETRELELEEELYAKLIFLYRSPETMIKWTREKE

Compound: Clc1cccc(Cl)c1CSc1nnc(-c2cnccn2)s1 [Yoda1, 2-[(2,6-Dichlorophenyl)methylsulfanyl]-5-pyrazin-2-yl-1,3,4-thiadiazole]
- normalized MFI levels (Fluo4 am median fluorescence intensity normalized on baseline) ([1]; RBCs of AD patients, n=21, mean±SEM): 8.57±0.6
- normalized MFI levels (Fluo4 am median fluorescence intensity normalized on baseline) ([1]; RBCs of MCI patients, n=26, mean±SEM): 7.9±0.48
- normalized MFI levels (Fluo4 am median fluorescence intensity normalized on baseline) ([1]; RBCs of control (healthy) subjects, n=23, mean±SEM): 5.64±0.27
- time at which maximum Fluo4 am MFI levels were reached ([1]; 10 μM Yoda1 applied at 20 s of recording, levels remained similar till end of 4 min recording): ≤ 60 s
- normalized increase fluorescence (signal after Yoda1 normalized to signal before addition) ([2]; 5 μM Yoda1, RBCs of AD patients): 5.64±0.23
- normalized increase fluorescence (signal after Yoda1 normalized to signal before addition) ([2]; 5 μM Yoda1, RBCs of healthy persons): 2.62±0.42
